Test results reported in ChEMBL document CHEMBL1649134, “Occurrence of efflux mechanism and cephalosporinase variant in a population of Enterobacter aerogenes and Klebsiella pneumoniae isolates producing extended-spectrum beta-lactamases” (2009).

Key:
Klebsiella pneumoniae [1] = assay: Inhibition of multidrug resistance efflux pump in Klebsiella pneumoniae isolate 13 assessed as increase in intracellular [14C]chloramphenicol accumulation relative to untreated control
Klebsiella pneumoniae [2] = assay: Inhibition of multidrug resistance efflux pump in Klebsiella pneumoniae isolate 14 assessed as increase in intracellular [14C]chloramphenicol accumulation relative to untreated control
Klebsiella aerogenes [3] = assay: Inhibition of multidrug resistance efflux pump in Enterobacter aerogenes isolate 13 assessed as increase in intracellular [14C]chloramphenicol accumulation relative to untreated control; type: cell-based
Klebsiella aerogenes [4] = assay: Inhibition of multidrug resistance efflux pump in Enterobacter aerogenes isolate 17 assessed as increase in intracellular [14C]chloramphenicol accumulation relative to untreated control; type: cell-based
Klebsiella aerogenes [5] = assay: Inhibition of multidrug resistance efflux pump in Enterobacter aerogenes isolate 6 assessed as increase in intracellular [14C]chloramphenicol accumulation relative to untreated control; type: cell-based

Measured: fold change (FC)

N#CC(C#N)=NNc1cccc(Cl)c1 [CARBONYL CYANIDE M-CHLOROPHENYLHYDRAZONE]
2: all assays above
